The record followed here is patent EP4740942A1, “AROMATIC AMIDE DERIVATIVE AND USE THEREOF” (HUAJIAN FUTURE (CHENGDU) TECHNOLOGY CO., LTD., priority 2023, dated 2025).

Data set [1] concerns lung cancer cells A427. As to the kind of experiment: 3D model proliferation inhibitory activity test against lung cancer cells A427 (CellTiter-3D-Glo). It is filed as cell-based. Particulars: Homo sapiens, A-427, low-adhesion 96-well U-bottom plate. The procedure:
(§1) Cell proliferation activity was detected by a CellTiter-3D-Glo reagent method. A specific method was as follows: A427 cells in logarithmic growth period were digested, diluted to a suitable cell density with MEM complete medium containing 10% FBS and 1% PS, inoculated into a low-adhesion 96-well U-bottom plate, and cultured in 5% CO2; and then a series of to-be-tested compounds with concentration gradient was added, and incubated in a 5% CO2 incubator. After finishing the incubation, the cells were lysed and detected by using the CellTiter-3D-Glo reagent. Chemiluminescence values were measured by a microplate reader, and data were fitted by Graphpad Prism software, so as to calculate IC50 values of tested substances.

The subject of data set [2] is colorectal cancer cells SW480. As to the kind of experiment: 3D model proliferation inhibitory activity test against colorectal cancer cells SW480 (CellTiter-3D-Glo). Particulars: Homo sapiens, low-adhesion 96-well U-bottom plate. It is filed as cell-based. The procedure:
as §1, with “SW480” for “A427”, “DMEM” for “MEM”

Data set [3] deals with pancreatic cancer cells MIA PaCa-2. The experiment in a line: Pharmacodynamic experiment of subcutaneous xenograft tumor model of pancreatic cancer cells MIA PaCa-2. It is filed as in vivo, BALB/c nude mice. Particulars: 0.2 mg/kg, QD × 15 days, oral gavage; for diets, weights and activities of the animals during the drug administration / Tumor inhibition rate: BALB/c nude mice; for Tumor inhibition rate: MIA PaCa-2 subcutaneous xenograft; for inhibitory effects on the growth of subcutaneously transplanted tumors of pancreatic cancer MIA PaCa-2 cells in the nude mice: result in words.

Data set [4] concerns colorectal cancer cells HCT116. As to the kind of experiment: Proliferation inhibitory activity test against colorectal cancer cells HCT116 (CellTiter-3D-Glo). It is filed as cell-based. Particulars: Homo sapiens, HCT-116, low-adhesion 96-well U-bottom plate. The procedure: Cell proliferation activity was detected by a CellTiter-3D-Glo reagent method. A testing process was as follows: HCT116 cells in logarithmic growth period were digested, diluted to a suitable cell density with McCoy's 5A complete medium containing 10% FBS and 1% PS, inoculated into a low-adhesion 96-well U-bottom plate, and cultured in 5% CO2; and then a series of to-be-tested compounds with concentration gradient was added, and the system was incubated in a 5% CO2 incubator. After finishing the incubation, the cells were lysed and detected by using the CellTiter-3D-Glo reagent. Chemiluminescence values were measured by a microplate reader, and data were fitted by Graphpad Prism software, so as to calculate IC50 values of tested substances. Test results can be seen in the following table: wherein, "A" represents inhibitory activity IC50 < 20 nM, "B" represents inhibitory activity 20 nM ≤ IC50 < 50 nM, and "C" represents inhibitory activity IC50 ≥ 50 nM.

Data set [5] in a line: In-vivo pharmacokinetic study in SD rats. Particulars: 0.2 mg/kg. The method, then:
Pharmacokinetic study on compound 4-1 in SD rats was conducted. 12 SD rats (half male and half female) were selected and randomly divided into 2 groups (3 rats/sex/group) according to their body weights, and the groups were recorded as a group 1 and a group 2, which were administered with 0.2 mg/kg compound 4-1 by intravenous and oral gavage route respectively. All the experimental animals were administered with a single dose on Day 0, and a drug administration moment was recorded as 0 hour. About 0.25 mL of whole blood (EDTA-K2) was respectively collected from all the experimental animals in group 1 before the drug administration, at 5 minutes, 15 minutes, 30 minutes, 1 hour, 2 hours, 4 hours, 6 hours, 8 hours and 24 hours after finishing the drug administration to prepare plasma; and about 0.25 mL of whole blood (EDTA-K2) was respectively collected from all the experimental animals in group 2 before the drug administration, at 15 minutes, 30 minutes, 1 hour, 2 hours, 4 hours, 6 hours, 8 hours and 24 hours after finishing the drug administration to prepare plasma. The compounds in the plasma samples were quantitatively determined by a LC-MS/MS method, and pharmacokinetic parameters were analyzed and calculated by non-compartmental analysis.

The subject of data set [6] is colorectal cancer cells SW480. The experiment in a line: Pharmacodynamic experiment of subcutaneous xenograft tumor model of colorectal cancer cells SW480. In kind it is in vivo, BALB/c nude mice. Particulars: 0.2 mg/kg, QD × 18 days, oral gavage. The procedure:
Animal species and number: BALB/c nude mice, 6 mice in each group.
Experimental samples: compound 4-1 and compound Ref A-1.
Experimental groups: blank solvent control group, compound 4-1 (0.2 mg/kg, QD × 18 days) and compound Ref A-1 (0.2 mg/kg, QD × 18 days).
Establishment of animal model: SW480 tumor cells in logarithmic growth period were cultured and collected in vitro, and inoculated subcutaneously in right backs of the Balb/c Nude mice, and when tumors grew to about 180-250 mm^3, the tumor-bearing mice were randomly divided into groups. Subsequently, each group of animals were administered with drugs, and the first day of drug administration was defined as the 1st day of the experiment.
Drug administration route and frequency: oral gavage, once per day, for 18 consecutive days.
General state observation: the mice were observed once per day, and observation contents included, but were not limited to, locally administered parts, physical signs, general behaviors, mental states, death and other situations, and other abnormal manifestations of the animals.
Tumor volume calculation: V = 0.5 a × b^2, wherein a was a long diameter of tumor and b was a short diameter of tumor. Tumor growth inhibition rates TGI (%) were used to evaluate anti-tumor effects of the compounds. […]

Turning to `C=CCONC(=O)c1cc(Cc2ccnc(NS(=O)(=O)NC)c2F)c(F)c(F)c1Nc1ccc(I)cc1F` [Compound 5-1, N-(allyloxy)-3,4-difluoro-5-((3-fluoro-2-((N-methylaminosulfonyl)amino)pyridin-4-yl)methyl)-2-((2-fluoro-4-iodophenyl)amino)benzamide], in data set [1], the 50% inhibitory concentration (IC50) (commonly the concentration that inhibits the measured activity by half) was found to be 0.53 nM. In addition, in data set [2], half-maximal inhibition (IC50) required 0.17 nM. Further, in data set [3], the “diets, weights and activities of the animals during the drug administration” value is reported as “normal”; the Tumor inhibition rate result was “+++ (tumor inhibition rate > 90%)”; the “inhibitory effects on the growth of subcutaneously transplanted tumors of pancreatic cancer MIA PaCa-2 cells in the nude mice” value was “significant inhibitory effects”.

For `[2H]C([2H])(C=C)NC(=O)c1cc(Cc2ccnc(NS(=O)(=O)NC)c2F)c(F)c(F)c1Nc1ccc(I)cc1F` [Compound 4-7, N-(allyl-1,1-d2) -3,4-difluoro-5-((3-fluoro-2-((N-methylaminosulfonyl)amino)pyridin-4-yl)methyl)-2-((2-fluoro-4-iodophenyl)amino)benzamide], in data set [1], the IC50 came out at 1.09 nM.

`[2H]C([2H])([2H])NS(=O)(=O)Nc1nccc(Cc2cc(C(=O)NCC=C)c(Nc3ccc(I)cc3F)c(F)c2F)c1F` [Compound 4-10, N-allyl-3,4-difluoro-5-((3-fluoro-2-((N-methyl-d3-aminosulfonyl)amino)pyridin-4-yl)methyl)-2-((2-fluoro-4-iodophenyl)amino)benzamide]: the results for the IC50 in data set [1], in data set [2] and in data set [4] were 0.89 nM, 1.05 nM and under 20 nM, respectively.

Take `C=CCNC(=O)c1cc(Cc2ccnc(NS(=O)(=O)NC)c2F)c(F)c(F)c1Nc1ccc(C=C)cc1F` [Compound 4-14, N-allyl-3,4-difluoro-5-((3-fluoro-2-((N-methylaminosulfonyl)amino)pyridin-4-yl)methyl)-2-((2-fluoro-4-vinylphenyl)amino)benzamide]: the results for the IC50 in data set [2] and in data set [4] were 2.67 nM and under 20 nM, respectively.

As to `C=CCNC(=O)c1cc(Cc2ccnc(NS(=O)(=O)NCC)c2F)c(F)c(F)c1Nc1ccc(I)cc1F` [Compound 4-8, N-allyl-5-((2-((N-ethylaminosulfonyl)amino)-3-fluoropyridin-4-yl)methyl)-3,4-difluoro-2-((2-fluor o-4-iodophenyl)amino)benzamide], the concentration for half-maximal inhibition (IC50) is 2.88 nM in data set [1] and under 20 nM in data set [4].

With `C=C[C@@H](C)NC(=O)c1cc(Cc2ccnc(NS(=O)(=O)NC)c2F)c(F)c(F)c1Nc1ccc(I)cc1F` [Compound 4-5, (R)-N-(but-3-en-2-yl)-3,4-difluoro-5-((3-fluoro-2-((N-methylaminosulfonyl)amino)pyridin-4-yl)methyl)-2-((2-fluoro-4-iodophenyl)amino)benzamide], the figures for the half-maximal inhibitory concentration (IC50) in data set [1] and in data set [4] were 2.13 nM and under 20 nM, respectively.

Turning to `C=CCCONC(=O)c1cc(Cc2ccnc(NS(=O)(=O)NC)c2F)c(F)c(F)c1Nc1ccc(I)cc1F` [Compound 5-2, N-(but-3-en-1-yloxy)-3,4-difluoro-5-((3-fluoro-2-((N-methylaminosulfonyl)amino)pyridin-4-yl)methyl)-2-((2-fluoro-4-iodophenyl)amino)benzamide], the 50% inhibitory concentration (IC50) in data set [2] was 0.63 nM.

With `C=CCNC(=O)c1cc(Cc2ccnc(NS(=O)(=O)NC)c2F)c(F)c(F)c1Nc1ccc(I)cc1F` [Compound 4-1, N-allyl-3,4-difluoro-5-((3-fluoro-2-((N-methylaminosulfonyl)amino)pyridin-4-yl)methyl)-2-((2-fluoro-4-iodophenyl)amino)benzamide], the bioavailability – broadly, dose-corrected exposure relative to a reference, in per cent – in data set [5] (both sexes, rat, plasma, single dose, intravenous and oral gavage, read-out: absolute bioavailability (F%)) is over 65%. Moreover, the “absorption and clearance rates” value in data set [5] (result in words) is on record as “greater”. For the same molecule, the IC50 in data set [1] was 1.16 nM; in data set [2] it was 0.89 nM; in data set [4], under 20 nM. The Tumor inhibition rate entry in data set [6] (SW480 subcutaneous xenograft, BALB/c nude mice) is reported as “++++ (tumor inhibition rate > 100%)”; in data set [3], “+++ (tumor inhibition rate > 90%)”. Also, the “inhibitory effect on the growth of subcutaneously transplanted tumors of colorectal cancer SW480 cells in the nude mice” value in data set [6] (result in words) is “significant inhibitory effect”. Further, the “diets, weights and activities of the animals during the drug administration” value in data set [3] was “normal”. For the same molecule, in data set [3], the “inhibitory effects on the growth of subcutaneously transplanted tumors of pancreatic cancer MIA PaCa-2 cells in the nude mice” value was “significant inhibitory effects”.
